Assays:
[1] = test system: mature-BDNF (mBDNF) expression; assay: mBDNF expression in hippocampus and cortex of PTZ-kindled mice (Western blot); assay type: in vivo, mouse; conditions: 80 mg/kg repeated, p < 0.01 vs PTZ kindling control
Text: However, there are also few reports showing opposite findings.[51],[52] […] No changes in the expression of the nerve growth factor (NGF) were observed (Figure 6D–F).
Figure 6 Changes in mature-BDNF (mBDNF) expression in hippocampus (A) and cortex (C) and in proNGF expression in hippocampus (D) and cortex (F) with representative immunoblots, together with total protein amount visualized by the stain-free technique (B,E). Data are shown as means of relative expressions + SD (n = 8). Statistical significance was evaluated by one-way ANOVA followed by Tukey’s post hoc test: **p < 0.01 (GraphPad Prism 8.4.3).
The Western Blot method was used to assess the expression of proNGF and mBDNF in the mouse brain and hippocampal tissues. Using a bead homogenizer (Bead Ruptor Elite, Omni International, USA), the cortical and hippocampal regions of the mouse brain were weighted and homogenized at a ratio of 9 μL/mg in 2% SDS supplemented with a cocktail of protease (Thermo Scientific, Walthman, MA, USA) and phosphatase inhibitors (Sigma-Aldrich, St. Louis, MO, USA). Samples were then centrifuged at 10,000g for 10 min at 4 °C after being denatured for 10 min at 95 °C. […] One-way ANOVA with Tukey’s post hoc test was utilized to examine changes in the relative expression of the proteins that were evaluated.

[2] = PAMPA (Precoated PAMPA Plate System Gentest) passive permeability; assay type: in vitro ADME
[3] = thermogravimetric analysis and differential scanning calorimetry; assay type: physicochemical
Text: Bearing in mind that the active pharmaceutical ingredients are often exposed to heat upon a final dosage form manufacturing (e.g., granulation, hot melt-extrusion, and coating), high thermal stability of the compound is a favorable feature predisposing the molecule (R)-32 for a further development. Another property that may considerably slow down the process of bringing a new molecule to the market is limited solubility in water. Thus, a simple approach to verify if it would be possible to overcome this drawback by the physical modification of its crystalline structure was also undertaken. […] The melting endotherm of crystalline (R)-32 had the onset ca. 115 °C and the minimum at 126 °C. After a simple thermal treatment such as cooling of the melt, the amorphous form of (R)-32 was obtained. Its glass transition temperature was relatively low, ca. 30 °C, which means that (R)-32 should be coprocessed with excipients of antiplasticizing properties to develop enabling formulations stable at ambient storage conditions.
A Mettler Toledo thermogravimetric analysis/SDTA 851^e apparatus calibrated with indium, zinc, and aluminum was used. Its accuracy was equal to 10^–6 g. The samples were placed in an open aluminum crucible. The measurements were performed in Ar 5.0 (50 mL/min). The temperature ranged from 25 to 400 °C. The constant heating rate of 10 °C/min was applied. […]

CC(=O)N[C@@H](C(=O)N1CCN(c2cccc(OC(F)(F)F)c2)CC1)c1ccccc1 [(R)-32, (R)-N-(2-Oxo-1-phenyl-2-(4-(3-(trifluoromethoxy)phenyl)piperazin-1-yl)ethyl)acetamide]
mBDNF protein expression in the hippocampus (PTZ kindling-induced overexpression) [1]: reversed the overexpression
Pe relative to that of caffeine [2]: approximately 70%
Papp ([2]; passive blood–brain barrier permeability model, read-out: permeability coefficient (Pe)): 2.42 ×10⁻⁶ cm/s
thermally stable while heating up to (weight loss noted, TGA) ([3]; 10 °C/min): 190 °C
glass transition temperature of the amorphous form (DSC) ([3]; after cooling of the melt): ca. 30 °C

Source: article PMC11378297, “Discovery and Profiling of New Multimodal Phenylglycinamide Derivatives as Potent Antiseizure and Antinociceptive Drug Candidates” (ACS Chemical Neuroscience, 2024)
